Tests used:
[1] = system: IFN-gamma; assay: Gene expression (mRNA) by RT-PCR in cultured duodenal biopsies of celiac patients: IFN-gamma; assay type: cell-based, human; settings: PT medium with 5-ASA versus PT medium, 37° C., 48 h; optical density of bands
[2] = system: TNF; assay: Cytokine assay (ELISA) in culture liquids of duodenal biopsy organ cultures: TNF; assay type: cell-based, human; settings: for TNF, PT + 5ASA C, Mean / TNF, PT + 5ASA C, Median: peptic-tryptic digest of gliadin (PT)
Description: (§1) 3 groups of subjects were evaluated. The first (atrophic) group included 29 subjects with serum tests positive to antiendomysium and anti-transglutaminase antibodies, with a neo-diagnosis of celiac disease and gluten-containing diet. The second (Remission) group included 17 celiac disease subjects in clinical remission and gluten-free diet for at least 6 months. The third (Healthy) group included subjects not suffering from the celiac disease but suffering from inflammation of the gastro-enteric tract. […] The biopsies were washed in saline for two minutes at least three times. […] Three different amounts of medium are shared for the ELISA assay of Th1 and Th2 cytokines released in culture media.

[3] = system: cytokines; assay: Organ culture of duodenal biopsies, cytokines overall; assay type: cell-based, human; settings: biopsies of celiac disease subjects versus subjects without celiac disease
Description: The biopsies were washed in saline for two minutes at least three times. The biopsies were placed in culture media having a volume equal to 1 ml: The biopsies are incubated in an O2 (95%) and CO2 (5%) atmosphere at a temperature of 37° C. for a period ranging from 4 h to 72 h. Three different amounts of medium are shared for the ELISA assay of Th1 and Th2 cytokines released in culture media.

[4] = system: TFN-alpha; assay: Gene expression (mRNA) by RT-PCR in cultured duodenal biopsies of celiac patients: TFN-alpha; assay type: cell-based, human; settings: PT medium with 5-ASA versus PT medium, 37° C., 48 h; optical density of bands
[5] = system: TNF; assay: Cytokine assay (ELISA) from homogenate of cultured duodenal biopsies: TNF; assay type: cell-based, human; settings: for TNF, PT + 5ASA O, Mean / TNF, PT + 5ASA O, Median: peptic-tryptic digest of gliadin (PT)
Description: (§2) The biopsies were washed in saline for two minutes at least three times. […] After an incubation time ranging from 4 h to 72 h, at a T of 37° C.: The bioptic fragment is washed three times in saline for two minutes The biopsies are homogenised by mechanical or chemical disintegration Centrifugation is carried out, the supernatant is collected and transferred in a 1.5 ml Eppendorf Fixed cytokines in the mucosal tissue are assayed by the Elisa assay.

[6] = target: T1, PPARγ (Homo sapiens, UniProt P37231); assay: PPARγ activation, PPRE luciferase reporter in transfected HT-29 STD cells (Example 7); assay type: cell-based; settings: 30 mM, positive control
T1 construct: HT-29 STD cells were transiently transfected using the Effectene™ transfection reagent; endogenous in cells; host or cells: HT-29 STD (ATCC HTB-38)
T1 sequence (P37231 1-505): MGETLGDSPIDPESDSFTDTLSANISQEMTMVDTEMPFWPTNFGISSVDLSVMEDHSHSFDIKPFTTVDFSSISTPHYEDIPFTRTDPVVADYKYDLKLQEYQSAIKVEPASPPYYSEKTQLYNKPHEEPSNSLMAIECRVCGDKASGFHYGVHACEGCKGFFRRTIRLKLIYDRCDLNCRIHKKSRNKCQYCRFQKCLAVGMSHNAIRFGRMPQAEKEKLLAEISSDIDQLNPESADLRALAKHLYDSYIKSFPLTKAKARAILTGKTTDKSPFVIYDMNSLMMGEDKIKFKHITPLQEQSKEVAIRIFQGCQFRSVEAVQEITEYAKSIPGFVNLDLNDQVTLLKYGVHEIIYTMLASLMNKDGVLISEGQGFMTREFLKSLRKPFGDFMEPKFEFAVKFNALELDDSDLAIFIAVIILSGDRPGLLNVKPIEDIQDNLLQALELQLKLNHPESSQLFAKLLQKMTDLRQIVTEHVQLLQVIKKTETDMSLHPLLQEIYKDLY
Description: The colon carcinoma cell line HT-29 STD (ATCC HTB-38) was routinely grown in DMEM supplemented with 10% heat-FCS, and antibiotics.
HT-29 STD cells were transiently transfected using the Effectene™ transfection reagent (Qiagen™) according to instructions from the manufacturer. To test PPARγ activation, we performed transfection with 500 ng of a minimal promoter construct containing two copies of PPRE obtained from the cytochrome p450 4A (2XCYP). The renilla luciferase plasmid (0.1 μg/well) was also transfected as an internal control for monitoring transfection efficiency and for normalizing the firefly luciferase activity. Transfected cells were left for 24 hours incubation at 37° C. […] The pH of the drug solutions was adjusted to 7.4 with NaOH. Total cell extracts were prepared using the Passive Lysis Buffer (Promega™, Madison, Wis.). Luciferase activity was assayed in 20 μl of the extract using Promega's Dual Luciferase assay system according to manufacturer's protocol. Transfections were assayed in triplicate in at least three separate experiments. The luciferase activity was expressed as fold of the activity obtained in cells treated with the different molecules dividing by luciferase activity from non stimulated cells.
We investigated PPARγ transcriptional activity by transient transfections of epithelial cells with the renilla luciferase and PPRE plasmids. […]

[7] = system: IFN; assay: Cytokine assay (ELISA) from homogenate of cultured duodenal biopsies: IFN; assay type: cell-based, human; settings: for IFN, PT + 5ASA O, Mean / IFN, PT + 5ASA O, Median: peptic-tryptic digest of gliadin (PT)
Description: as §2

[8] = system: IL-2; assay: Cytokine assay (ELISA) in culture liquids of duodenal biopsy organ cultures: IL-2; assay type: cell-based, human; settings: for IL-2, PT + 5ASA C, Mean / IL-2, PT + 5ASA C, Median: peptic-tryptic digest of gliadin (PT)
Description: as §1

[9] = system: IL-2; assay: Gene expression (mRNA) by RT-PCR in cultured duodenal biopsies of celiac patients: IL-2; assay type: cell-based, human; settings: PT medium with 5-ASA versus PT medium, 37° C., 48 h; optical density of bands
[10] = Atrophic population, N 21, Wilcoxon p = N.S.
[11] = Positive control population, N 7
[12] = Positive control population, N 7, Wilcoxon p = N.S.
[13] = Remission population, N 15, Wilcoxon p = N.S.
[14] = Atrophic population, N 11, Wilcoxon p = 0.002
[15] = Atrophic population, N 11, Wilcoxon p = N.S.
[16] = Remission population, N 5, Wilcoxon p = N.S.
[17] = Atrophic population, N 9, Wilcoxon p = 0.003
[18] = Atrophic population, N 9, Wilcoxon p = 0.019
[19] = Remission population, N 4, Wilcoxon p = N.S.
[20] = Atrophic population, N 15, Wilcoxon p = 0.012
[21] = Atrophic population, N 15, Wilcoxon p = 0.03
[22] = Positive control population, N 7, Wilcoxon p = 0.07
[23] = Remission population, N 12, Wilcoxon p = N.S.

In the case of Nc1ccc(O)c(C(=O)O)c1 [Compound 5ASA, mesalazine], the “gene expression (mRNA) of IFN-gamma” value [1] is reported as “well reduced”, the “TNF, Medium + 5ASA C, Mean” value ([2]; Atrophic population, N 21) is reported as 0.472 and the “TNF, Medium + 5ASA C, Median” value ([2]; Atrophic population, N 21) is reported as 0.204. For the same compound, the “TNF, Difference PT C/PT + 5ASA C, Median” value ([2]; Atrophic population, N 21, Wilcoxon p < 0.0001) was 0.0580, the “TNF, Difference Medium C/Medium + 5ASA C, Mean” value [2, 10] was 0.0048 and the “TNF, Difference Medium C/Medium + 5ASA C, Median” value [2, 10] was 0.0150. The “TNF, PT + 5ASA C, Mean” value ([2]; Atrophic population, N 21) was 0.414, the “TNF, PT + 5ASA C, Median” value ([2]; Atrophic population, N 21) was 0.120 and the “TNF, Medium + 5ASA C, Mean” value [2, 11] was 0.259. The “TNF, Medium + 5ASA C, Median” value [2, 11] was 0.229, the “TNF, Difference Medium C/Medium + 5ASA C, Mean” value [2, 12] was 0.005 and the “TNF, Difference Medium C/Medium + 5ASA C, Median” value [2, 12] was 0.0040. For the same compound, the “TNF, Difference PT C/PT + 5ASA C, Mean” value [2, 12] was 0.0226, the “TNF, Difference PT C/PT + 5ASA C, Median” value [2, 12] was 0.0250 and the “TNF, PT + 5ASA C, Mean” value [2, 11] was 0.291. For the same compound, the “TNF, Medium + 5ASA C, Mean” value ([2]; Remission population, N 15) was 0.894, the “TNF, Medium + 5ASA C, Median” value ([2]; Remission population, N 15) was 0.571 and the “TNF, Difference PT C/PT + 5ASA C, Median” value ([2]; Remission population, N 15, Wilcoxon p = 0.005) was 0.221. For the same compound, the “TNF, Difference Medium C/Medium + 5ASA C, Mean” value [2, 13] was 0.0541, the “TNF, Difference Medium C/Medium + 5ASA C, Median” value [2, 13] was 0.0790 and the “TNF, PT + 5ASA C, Mean” value ([2]; Remission population, N 15) was 0.305. For the same compound, the “TNF, PT + 5ASA C, Median” value ([2]; Remission population, N 15) was 0.545, the “effect of Mesalazine in culture media on the cytokines” value [3] was “blocks the cytokines in celiac disease subjects only” and the “gene expression (mRNA) of TFN-alpha” value [4] was “well reduced”. The “TNF, Medium + 5ASA O, Mean” value ([5]; Atrophic population, N 11) was 0.123, the “TNF, Difference PT O/PT + 5ASA O, Mean” value [5, 14] was 0.0554 and the “TNF, Difference PT O/PT + 5ASA O, Median” value [5, 14] was 0.0270. The “TNF, Difference Medium O/Medium + 5ASA O, Mean” value [5, 15] was 0.0154, the “TNF, Difference Medium O/Medium + 5ASA O, Median” value [5, 15] was 0.0100 and the “TNF, PT + 5ASA O, Mean” value ([5]; Atrophic population, N 11) was 0.101. For the same compound, the “TNF, PT + 5ASA O, Median” value ([5]; Atrophic population, N 11) was 0.0980, the “TNF, Medium + 5ASA O, Mean” value ([5]; Remission population, N 5) was 0.122 and the “TNF, Difference Medium O/Medium + 5ASA O, Mean” value [5, 16] was −0.00. The “TNF, Difference Medium O/Medium + 5ASA O, Median” value [5, 16] was 0.0050, the “TNF, Difference PT O/PT + 5ASA O, Mean” value [5, 16] was 0.0194 and the “TNF, Difference PT O/PT + 5ASA O, Median” value [5, 16] was 0.0210. The “TNF, PT + 5ASA O, Mean” value ([5]; Remission population, N 5) was 0.107, the “TNF, PT + 5ASA O, Median” value ([5]; Remission population, N 5) was 0.110 and the “increase of the reporter gene activity” value [6] was 2.8±0.7 fold. The “IFN, Medium + 5ASA O, Mean” value ([7]; Atrophic population, N 9) was 0.202, the “IFN, Medium + 5ASA O, Median” value ([7]; Atrophic population, N 9) was 0.193 and the “IFN, Difference Medium O/Medium + 5ASA O, Mean” value [7, 17] was 0.0951. For the same compound, the “IFN, Difference Medium O/Medium + 5ASA O, Median” value [7, 17] was 0.0560, the “IFN, Difference PT O/PT + 5ASA O, Mean” value [7, 18] was 0.0437 and the “IFN, Difference PT O/PT + 5ASA O, Median” value [7, 18] was 0.0380. The “IFN, PT + 5ASA O, Mean” value ([7]; Atrophic population, N 9) was 0.179, the “IFN, PT + 5ASA O, Median” value ([7]; Atrophic population, N 9) was 0.193 and the “IFN, Medium + 5ASA O, Mean” value ([7]; Remission population, N 4) was 0.133. For the same compound, the “IFN, Difference Medium O/Medium + 5ASA O, Mean” value [7, 19] was 0.120, the “IFN, Difference PT O/PT + 5ASA O, Mean” value [7, 19] was 0.0230 and the “IFN, Difference PT O/PT + 5ASA O, Median” value [7, 19] was 0.0215. For the same compound, the “IFN, PT + 5ASA O, Mean” value ([7]; Remission population, N 4) was 0.177, the “IFN, PT + 5ASA O, Median” value ([7]; Remission population, N 4) was 0.161 and the “IL-2, Medium + 5ASA C, Mean” value ([8]; Atrophic population, N 15) was 0.119. The “IL-2, Medium + 5ASA C, Median” value ([8]; Atrophic population, N 15) was 0.0910, the “IL-2, Difference PT C/PT + 5ASA C, Mean” value [8, 20] was 0.0270 and the “IL-2, Difference PT C/PT + 5ASA C, Median” value [8, 20] was 0.0410. For the same compound, the “IL-2, Difference Medium C/Medium + 5ASA C, Mean” value [8, 21] was 0.0559, the “IL-2, Difference Medium C/Medium + 5ASA C, Median” value [8, 21] was 0.0490 and the “IL-2, PT + 5ASA C, Mean” value ([8]; Atrophic population, N 15) was 0.124. The “IL-2, PT + 5ASA C, Median” value ([8]; Atrophic population, N 15) was 0.0770, the “IL-2, Medium + 5ASA C, Mean” value [8, 11] was 0.356 and the “IL-2, Medium + 5ASA C, Median” value [8, 11] was 0.379. For the same compound, the “IL-2, Difference Medium C/Medium + 5ASA C, Mean” value [8, 22] was 0.116, the “IL-2, Difference Medium C/Medium + 5ASA C, Median” value [8, 22] was 0.247 and the “IL-2, Difference PT C/PT + 5ASA C, Mean” value [8, 12] was −0.020. For the same compound, the “IL-2, Difference PT C/PT + 5ASA C, Median” value [8, 12] was 0.0210, the “IL-2, PT + 5ASA C, Mean” value [8, 11] was 0.521 and the “IL-2, PT + 5ASA C, Median” value [8, 11] was 0.468. The “IL-2, Medium + 5ASA C, Mean” value ([8]; Remission population, N 12) was 0.309, the “IL-2, Medium + 5ASA C, Median” value ([8]; Remission population, N 12) was 0.253 and the “IL-2, Difference Medium C/Medium + 5ASA C, Mean” value [8, 23] was 0.0061. The “IL-2, Difference Medium C/Medium + 5ASA C, Median” value [8, 23] was 5E−4, the “IL-2, Difference PT C/PT + 5ASA C, Mean” value [8, 23] was 0.0365 and the “IL-2, Difference PT C/PT + 5ASA C, Median” value [8, 23] was 0.0260. For the same compound, the “IL-2, PT + 5ASA C, Mean” value ([8]; Remission population, N 12) was 0.234, the “IL-2, PT + 5ASA C, Median” value ([8]; Remission population, N 12) was 0.194 and the “gene expression (mRNA) of IL-2” value [9] was “well reduced”.
